This is an account of results in patent US9427691B2, “Antimicrobial air filter” (PTI Technologies, Inc., priority 2014, dated 2016).

What all share (format): cell-based
The subject of experiment [1] is Staphylococcus aureus (ATCC #6538). Description: quantitative test for bacterial growth on treated air filter media. The note with it: for # of Bacteria Recovered / % Reduction / Log Reduction (S): air filter media saturated with solution and dried, 18 hours at 37 C. The method, then: There are various anti-microbial agents that are available for application to the air filter media 16. […] To determine the effectiveness of an antimicrobial agent with regard to bacteria, samples of air filter media 16 were treated with various solutions of antimicrobial agents and subjected to a quantitative test. In the quantitative test for bacterial growth, an air filter media sample was saturated with a solution of an antimicrobial agent and allowed to dry. The air filter media sample was then placed in a sealed container and a 0.2 mL inoculum of Staphylococcus aureus (ATCC #6538) was placed, in microdroplets, on the surface of the air filter media sample. A solution having a 0.05% concentration of polysorbate 80 was added to the inoculum as a wetting agent. The air filter media sample was then incubated for 18 hours at a temperature of 37 C°. After incubation, 20 mL of […] broth was added to the container, and the container was shaken. The bacteria in the resulting liquid were then quantified using a series of dilution plates.

In the next experiment the test system is Aspergillus niger fungus. The experiment in a line: antifungal test AATCC Test Method 30-2013 on treated air filter media. Here is the method:
(§1) Air filter media samples treated with the aforementioned antimicrobial solutions were then tested for antifungal properties using the common American Association of Textile Chemists and Colorists (AATCC) Test Method 30-2013. […] A larger growth-free zone indicates higher antifungal properties, and a higher surface inhibition indicates higher antifungal properties. The test was performed for both Aspergillus niger and Trichoderma virens species of fungus.

In experiment [2] the test system is Trichoderma virens fungus. Described as above. The method, then:
as §1

With `Cc1ccc(S(=O)(=O)C(I)I)cc1` [1% diiodomethyl-p-tolyl sulfone, diiodomethyl-p-tolyl sulfone], in experiment [1], the “effectiveness at inhibiting bacterial growth (in words)” value is “most effective”, the “# of Bacteria Recovered” value was <2.00 × 10^1, the “% Reduction” value was more than 99.9% and the “Log Reduction (S)” value is reported as more than 4.8. In addition, in the experiment with Aspergillus niger fungus, the “effectiveness at inhibiting fungal growth (in words)” value was “did not inhibit any growth”. In the experiment on Aspergillus niger fungus (treated filter media), the “Growth-Free Zone in MM” value amounted to 0 MM and the “Surface Inhibition” value worked out at 0. The “effectiveness at inhibiting fungal growth (in words)” value in experiment [2] is “limited in its effectiveness”. Besides, in experiment [2] (treated filter media), the “Growth-Free Zone in MM” value is 0 MM and the “Surface Inhibition” value is listed as 50.

For the molecule `[Cl][Ag]` [2% silver chloride, silver chloride], in experiment [1], the “# of Bacteria Recovered” value is 1.81 × 10^4, the “% Reduction” value was 98.6% and the “Log Reduction (S)” value was 1.8.
